The values below come from ChEMBL document CHEMBL5338792, “Degradation of Rat Sarcoma Proteins Targeting the Post-Translational Prenyl Modifications via Cascade Azidation/Fluorination and Click Reaction” (J Med Chem, 2023).

Activity calls are given as the source filed them. The rule behind the calls is not given here.

Test [1] deals with T1, Protein cereblon/GTPase HRas/GTPase NRas/GTPase KRas (Homo sapiens) (UniProt P01112+P01111+P01116+Q96SW2). The test can be described thus: SacrPROTAC activity at E3 ubiquitin ligase/RAS in TMSN3/Selectfluor-treated human HeLa cells assessed as induction of RAS degradation at 200 uM measured after 24 hrs in presence of propargyl pomalidomide by Western blot analysis. Type of test: cell-based. (A western blot detects proteins with antibodies after separation by electrophoresis.)

Test [2] deals with HeLa. The test can be described thus: Downregulation of HRAS in TMSN3/Selectfluor-treated human HeLa cells at 50 to 200 uM incubated for 24 hrs in presence of CuBr/TBTA by TMT mass spectrometric analysis. Type of test: functional, cell-based. The conditions noted are these: dose 50-200 µM.
Test [3] deals with T1, Protein cereblon/GTPase HRas/GTPase NRas/GTPase KRas (Homo sapiens). Nature of the test: SacrPROTAC activity at E3 ubiquitin ligase/RAS in TMSN3/Selectfluor-treated human HeLa cells assessed as induction of RAS degradation at 75 uM incubated for >48 hrs by Western blot analysis. Type of test: cell-based.
For test [4] the target is unchanged. The test can be described thus: SacrPROTAC activity at E3 ubiquitin ligase/RAS in TMSN3/Selectfluor-treated human HeLa cells assessed as induction of RAS degradation at 200 uM measured after 24 hrs in presence of PYR-41 by Western blot analysis. Type of test: cell-based.
The target is the same in test [5]. The test can be described thus: SacrPROTAC activity at E3 ubiquitin ligase/RAS in TMSN3/Selectfluor-treated human HeLa cells assessed as induction of RAS degradation at 200 uM measured after 24 hrs in presence of methyl propargyl pomalidomide by Western blot analysis. Type of test: cell-based.
Test [6] has as its system A549. Nature of the test: SacrPROTAC activity at E3 ubiquitin ligase/RAS in TMSN3/Selectfluor-treated human A549 cells assessed as induction of RAS degradation at 200 uM measured for 48 hrs by Western blot analysis. Type of test: functional, cell-based.
Test [7] deals with HeLa. Nature of the test: Upregulation of GSTP1 in TMSN3/Selectfluor-treated human HeLa cells at 50 to 200 uM incubated for 24 hrs in presence of CuBr/TBTA by TMT mass spectrometric analysis. Type of test: functional, cell-based. Conditions: dose 50-200 µM.
Test [8] relates to HeLa. Nature of the test: Induction of apoptosis in TMSN3/Selectfluor-treated human HeLa cells at 200 uM in presence of CuBr/TBTA incubated for 24 hrs by annexin V-FITC/PI staining based flow cytometry. Type of test: functional, cell-based. For orientation: Flow cytometry measures light scatter and fluorescence of single cells or particles in a stream.
The test system of test [9] is MCF7. Nature of the test: SacrPROTAC activity at E3 ubiquitin ligase/RAS in TMSN3/Selectfluor-treated human MCF7 cells assessed as induction of RAS degradation at 200 uM measured upto 48 hrs by Western blot analysis. Type of test: functional, cell-based.
Test [10] addresses T1, Protein cereblon/GTPase HRas/GTPase NRas/GTPase KRas (Homo sapiens). Nature of the test: SacrPROTAC activity at E3 ubiquitin ligase/RAS in TMSN3/Selectfluor-treated human HeLa cells assessed as induction of RAS degradation at 200 uM measured after 24 hrs by Western blot analysis. Type of test: cell-based.
For test [11] the target is unchanged. The test can be described thus: SacrPROTAC activity at E3 ubiquitin ligase/RAS in TMSN3/Selectfluor-treated human HeLa cells assessed as induction of RAS degradation incubated for 24 hrs by Western blot analysis. It counts as cell-based. Conditions: dose <= 200.0 µM.
Test [12] deals with MCF7. Nature of the test: SacrPROTAC activity at E3 ubiquitin ligase/RAS in TMSN3/Selectfluor-treated human MCF7 cells assessed as induction of RAS degradation at 200 uM measured after 24 hrs by Western blot analysis. Type of test: functional, cell-based.
Test [13] has as its system HT-29. The test can be described thus: SacrPROTAC activity at E3 ubiquitin ligase/RAS in TMSN3/Selectfluor-treated human HT-29 cells assessed as induction of RAS degradation at 100 to 200 uM measured for 12 to 24 hrs by Western blot analysis. Type of test: functional, cell-based. Conditions: dose 100-200 µM, time 12-24 hrs.
Test [14] relates to HT-29. The test can be described thus: Inhibition of […] in TMSN3/Selectfluor-treated human HT-29 cells upto 200 uM in presence of CuBr/TBTA by CCK8 assay. Type of test: functional, cell-based. (In general: Tetrazolium dyes change colour on reduction, which living cells bring about.)
Test [15] concerns HT-29. The test can be described thus: SacrPROTAC activity at E3 ubiquitin ligase/RAS in TMSN3/Selectfluor-treated human HT-29 cells assessed as induction of RAS degradation at 100 to 200 uM measured after 24 hrs by Western blot analysis. It counts as functional, cell-based. The conditions noted are these: dose 100-200 µM.
The subject of test [16] is HeLa. The test can be described thus: SarcPROTAC activity at VHL/RAS in TMSN3/Selectfluor-treated human HeLa cells at 50 uM in presence of CuBr/TBTA incubated for 24 hrs by Western blot analysis. It counts as cell-based.
For test [17], the system named is A549. Nature of the test: SarcPROTAC activity at VHL/RAS in TMSN3/Selectfluor-treated human A549 cells at 50 uM in presence of CuBr/TBTA incubated for 24 hrs by Western blot analysis. Type of test: cell-based.

T1 sequence (P01111 whole entry, looked up): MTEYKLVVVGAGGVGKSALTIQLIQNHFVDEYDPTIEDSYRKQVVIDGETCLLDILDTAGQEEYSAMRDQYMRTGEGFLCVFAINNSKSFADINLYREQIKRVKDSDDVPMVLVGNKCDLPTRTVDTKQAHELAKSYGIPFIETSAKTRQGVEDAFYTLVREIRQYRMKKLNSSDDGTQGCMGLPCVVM
T1 sequence (P01112 whole entry, looked up): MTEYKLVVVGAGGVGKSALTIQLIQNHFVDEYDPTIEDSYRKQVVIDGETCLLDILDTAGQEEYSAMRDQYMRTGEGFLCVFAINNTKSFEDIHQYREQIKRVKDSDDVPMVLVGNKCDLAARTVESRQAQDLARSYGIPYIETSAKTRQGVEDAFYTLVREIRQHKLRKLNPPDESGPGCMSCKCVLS
T1 sequence (P01116 whole entry, looked up): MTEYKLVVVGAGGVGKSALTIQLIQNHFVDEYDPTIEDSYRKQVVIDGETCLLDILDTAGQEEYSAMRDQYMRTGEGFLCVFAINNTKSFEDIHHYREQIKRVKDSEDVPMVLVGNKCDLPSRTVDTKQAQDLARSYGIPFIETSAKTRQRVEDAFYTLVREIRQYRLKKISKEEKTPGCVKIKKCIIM
T1 sequence (Q96SW2 whole entry, looked up): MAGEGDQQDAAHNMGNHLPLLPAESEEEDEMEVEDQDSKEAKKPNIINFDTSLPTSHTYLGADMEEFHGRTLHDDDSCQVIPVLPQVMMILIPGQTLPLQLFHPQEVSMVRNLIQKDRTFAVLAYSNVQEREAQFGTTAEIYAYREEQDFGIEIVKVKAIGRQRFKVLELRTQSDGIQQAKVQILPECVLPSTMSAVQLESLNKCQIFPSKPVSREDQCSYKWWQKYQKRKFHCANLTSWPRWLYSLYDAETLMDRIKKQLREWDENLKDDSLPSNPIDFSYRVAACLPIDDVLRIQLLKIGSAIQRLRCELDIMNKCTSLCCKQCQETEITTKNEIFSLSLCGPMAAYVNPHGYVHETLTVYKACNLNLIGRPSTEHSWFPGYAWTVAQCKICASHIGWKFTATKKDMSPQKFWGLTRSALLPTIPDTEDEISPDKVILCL

For the molecule `C#CCNCC(=O)Nc1cccc2c1C(=O)N(C1CCC(=O)N(C)C1=O)C2=O` (configuration not stated), the result in [1] was inactive.

As to `C#CCNCC(=O)Nc1cccc2c1C(=O)N(C1CCC(=O)NC1=O)C2=O` (configuration not stated), the result (in the test on HeLa [2]; in [3]; in [5]; in the test with A549 [6]; in the test on HeLa [7]; with HeLa [8]) was Active. Besides, the result (in [10]; with MCF7 [12]; in the test with HT-29 [13]; in the test with HT-29 [15]) was Active. Also, the outcome (in test [4]; in the test on MCF7 [9]) was inactive. Also, the Activity entry in test [11] is “Dose-Dependent Effect”. For the same molecule, the inhibition result in the test with HT-29 [14] was “Active”.

Regarding `C#CCCOC(=O)N[C@H](C(=O)N1C[C@H](O)C[C@H]1C(=O)NCc1ccc(-c2scnc2C)cc1)C(C)(C)C`, the result with HeLa [16] and in the test with A549 [17] was Active.
